From patent US20080214563A1, “Benzimidazole Thiophene Compounds As Plk Modulators” (priority 2005, published 2008)

How the values were obtained:
A549-L = experiment: Cell-Titer Glo Cell Growth Inhibition Assay, A549-L; type: cell-based; conditions: Homo sapiens, CellTiter-Glo, 72 h, read-out: CTG A549-L IC50
Procedure: (§1) A549-L (human lung), BT474 (human breast), Colo 205 (human colon), H1299 (human lung), Hela (human cervix), HCT-116 (human colon), HN5 (human head and neck), HT29 (human colon), LNCap (human prostate), MCF7 (human breast), MDA-MB468 (human breast), MX-1 (human breast), RPMI 8226 (human peripheral blood), SKOV3 (human ovary) and P388 (murine leukemia) cell lines were cultured in RPMI1640 containing 10% fetal bovine serum at 37° C. in a 5% CO2 incubator. Cell lines were split into T75 flasks (Falcon #353136) two to three days prior to assay set up at density which yields approximately 70-80% confluency at time of harvest for assay. Cells were harvested using 0.25% trypsin with EDTA (Glibco/Invitrogen #25200-056), Cell counts were performed on cell suspensions using Trypan Blue exclusion staining, cells were then plated in 105 uL of culture media per well at the following densities in 96 well Costar #3916 black flat bottom plates: All human cell lines were plated at 500 cells/well. P388 were plated at 250 cells/well. All plates were placed at 5% CO2 37° C. overnight and then test compounds were added the following day. One plate of each cell type is treated with CellTiter-Glo (Promega #G7573) for a day 0 proliferation measurement and read as described below. The test compounds are prepared in clear U bottom polypropylene 96 well plates (Falcon #35-1190 with consecutive two fold dilutions. 9 uL of these dilutions was added into each well of the cell plates. The final concentration of DMSO in all wells is 0.15%. Cells were incubated at 37° C., 5% CO2 for 72 h. Following 72 h of incubation with compounds each plate was developed and read. CellTiter-Glo reagent was added to assay plates using a volume equivalent to the cell culture volume in the wells. Plates were shaken for approximately two minutes and incubated at room temperature for approximately 15 min and the chemiluminescent signal is read on the Victor V or Envison 2100 reader. […] Concentration of compound that inhibited 50% of cell growth (IC50) was analysis by 4 or 6 parameter fit of data using XLfit, value of no cell addition was subtracted from all samples for background.

HT29 = experiment: Cell-Titer Glo Cell Growth Inhibition Assay, HT29; type: cell-based; conditions: Homo sapiens, HT-29, CellTiter-Glo, 72 h, read-out: CTG HT29 IC50
Procedure: as §1

HCT-116 = experiment: Cell-Titer Glo Cell Growth Inhibition Assay, HCT116; type: cell-based; conditions: Homo sapiens, CellTiter-Glo, 72 h, read-out: CTG HCT116 IC50
Procedure: as §1

MX-1 [1] = experiment: Cell-Titer Glo Cell Growth Inhibition Assay, MX-1; type: cell-based; conditions: Homo sapiens, MX1, CellTiter-Glo, 72 h, read-out: CTG MX-1 IC50
Procedure: as §1

P388 = experiment: Cell-Titer Glo Cell Growth Inhibition Assay, P388; type: cell-based, murine; conditions: Mus musculus, CellTiter-Glo, 72 h, read-out: CTG P388 IC50
Procedure: as §1

Colo 205 = experiment: Cell-Titer Glo Cell Growth Inhibition Assay, COLO205; type: cell-based; conditions: Homo sapiens, CellTiter-Glo, 72 h, read-out: CTG COLO205 IC50
Procedure: as §1

[2] = Intravenous pharmacokinetics in CD-1 mouse; type: in vivo; conditions: plasma, iv bolus, male CD-1 mouse, dose 1.9-7.4 mg/kg per compound (Table 3); for clearance: read-out: Plasma CL
Procedure: Preliminary investigation of the intravenous pharmacokinetics of compounds of invention were carried out in fed conscious CD-1 mouse. Compounds were formulated as 1-10 mg/kg, 5 mL/kg, 1-2 mg/mL solution (Table 3). Twenty one male mice (n=3 mice per time point) (˜30 g) received dose solution by bolus injection in the tail vein. The formulation for iv were either 20% beta cyclodextrin in saline pH 3.5-6 or PEG400:ethanol:saline (50:15:35 v/v). Blood samples (˜0.4 mL) were collected terminally by cardiac puncture following anesthetization in a CO2 chamber at 2, 15, 30, 60 min, 2, 4, and 6 h following iv administration. Blood samples were collected into tubes containing heparin and placed on crushed ice promptly after collection. Plasma was collected by centrifugation, frozen and stored at about −80° C. prior to analysis. Blood or plasma concentrations were determined by LC/MS/MS equipped with an electrospray ion source and using calibration curves for the appropriate matrix. The lower level of quantitation (LLQ) was 10 ng/mL. Blood or plasma concentration-time data were analyzed by non-compartmental methods using the computer program WinNonlin Professional (version 4.1). Area under the blood or plasma concentration-time curve (AUC) was calculated using the linear trapezoidal rule for each incremental trapezoid up to Cmax, and the log trapezoidal rule for each trapezoid thereafter. The terminal elimination rate constant (λz) was derived from the log-linear disposition phase of the concentration-time curve using least-squares regression analysis with visual inspection of the data to determine the appropriate number of terminal data points for regression analysis.
Following iv administration, the total body clearance (CL) was estimated. CL was calculated by dividing the dose by AUC(0−t). The clearance values were assigned as follows. Low <30 mL/min/kg, moderate 30-70 mL/min/kg, high >70 mL/min/kg. The assignment was based on hepatic blood flow i.e. hepatic blood flow of 0-30% low, 30-70% moderate and 70-100% high. The hepatic blood flow in mouse is ˜100 mL/min/kg.

SKOV3 = experiment: Cell-Titer Glo Cell Growth Inhibition Assay, SKOV-3; type: cell-based; conditions: Homo sapiens, SK-OV-3, CellTiter-Glo, 72 h, read-out: CTG SKOV-3 IC50
Procedure: as §1

PLK1 kinase domain = target: T1, PLK1 kinase domain (Homo sapiens, UniProt P53350); experiment: Assay for Inhibition of PLK1 (33P SPA kinase assay); type: biochemical; conditions: 2 nM PLK1 kinase domain, 1 μM ATP; read-out: PLK1 pIC50 (converted)
T1 construct: made in house; host or cells: baculovirus infected T. ni cells
T1 sequence (P53350 21-346): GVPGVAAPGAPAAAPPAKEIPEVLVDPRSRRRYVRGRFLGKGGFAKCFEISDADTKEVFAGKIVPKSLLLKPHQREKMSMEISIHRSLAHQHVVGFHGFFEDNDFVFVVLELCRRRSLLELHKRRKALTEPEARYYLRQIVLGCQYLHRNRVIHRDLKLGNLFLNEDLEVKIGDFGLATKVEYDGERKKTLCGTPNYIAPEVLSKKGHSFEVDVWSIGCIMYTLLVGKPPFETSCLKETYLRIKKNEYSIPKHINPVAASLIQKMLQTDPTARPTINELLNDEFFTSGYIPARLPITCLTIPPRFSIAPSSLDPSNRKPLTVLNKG
Procedure: All procedures were performed at 4° C. Cells were lysed in 50 mM HEPES, 200 mM NaCl, 50 mM imidazole, 5% glycerol; pH 7.5. The homogenate was centrifuged at 14K rpm in a SLA-1500 rotor for 1 h and the supernatant filtered through a 1.2 micron filter. The supernatant was loaded onto a Nickel chelating Sepharose (Amersham Pharmacia) column and washed with lysis buffer. Protein was eluted using 20%, 30% and 100% buffer B steps where buffer B is 50 mM HEPES, 200 mM NaCl, 300 mM imidazole, 5% glycerol; pH 7.5. Fractions containing PLK were determined by SDS-PAGE. Fractions containing PLK were diluted five-fold with 50 mM HEPES, 1 mM DTT, 5% glycerol; pH 7.5, then loaded on an SP Sepharose (Amersham Pharmacia) column. After washing the column with 50 mM HEPES, 1 mM DTT, 5% glycerol; pH 7.5, PLK was step eluted with 50 mM HEPES, 1 mM DTT, 500 mM NaCl; 5% glycerol; pH 7.5. PLK was concentrated using a 10 kDa molecular weight cutoff membrane and then loaded onto a Superdex 200 gel filtration (Amersham Pharmacia) column equilibrated in 25 mM HEPES, 1 mM DTT, 500 mM NaCl, 5% glycerol; pH 7.5. Fractions containing PLK were determined by SDS-PAGE. PLK was pooled, aliquoted and stored at −80° C. Samples were quality controlled using mass spectrometry, N-terminal sequencing and amino acid analysis.
B. Enzyme activity +/− inhibitors was determined as follows:
All measurements were obtained under conditions where signal production increased linearly with time and enzyme. Test compounds were added to white 384-well assay plates (0.1 μL for 10 μL and some 20 μl assays, 1 μL for some 20 μL assays) at variable known concentrations in 100% DMSO. DMSO (1-5% final, as appropriate) and EDTA (65 mM in reaction) were used as controls.
Reaction Mix (10 or 20 μL) was quickly added to each well immediately following addition of enzyme via automated liquid handlers and incubated 1-1.5 h at 22° C. The 20 μL enzymatic reactions were stopped with 50 μL of stop mix (50 mM EDTA, 4.0 mg/mL Streptavidin SPA beads in Standard Dulbecco's PBS (without Mg^2+ and Ca^2+), 50 μM ATP) per well. The 10 μL reactions were stopped with 10 μL of stop mix (50 mM EDTA, 3.0 mg/mL Streptavidin-coupled SPA Imaging Beads (“LeadSeeker”) in Standard Dulbecco's PBS (without Mg^2+ and Ca^2+), 50 μM ATP) per well. Plates were sealed with clear plastic seals, spun at 500×g for 1 min or settled overnight, and counted in Packard TopCount for 30 seconds/well (regular SPA) or imaged using a Viewlux imager (LeadSeeker SPA). Signal above background (EDTA controls) was converted to percent inhibition relative to that obtained in control (DMSO-only) wells.

[3] = tested on: Normal human foreskin fibroblasts (HFF); experiment: Methylene Blue Cell Growth Inhibition Assay, HFF; type: cell-based; conditions: Fibroblast, 72 h, read-out: MEB HFF IC50
Procedure: (§2) Normal human foreskin fibroblasts (HFF), human colon (HCT116, RKO), lung (H460, A549) and breast (MCF7) tumor cell lines were cultured in high glucose DMEM (Life Technologies) containing 10% fetal bovine serum (FBS) at 37° C. in a humidified 5% CO2, 95% air incubator. Cells were harvested using trypsin/EDTA, counted using a haemocytometer, and plated in 100 μL of culture media per well, at the following densities, in a 96-well tissue culture plate (Falcon 3075): HFF 5,000 cells/well, HCT116 3,000 cells/well, RKO 2,500 cells/well, H460 2,500 cells/well, A549 5,000 cells/well, MCF7 4,000 cells/well. The next day, compounds were diluted in low glucose DMEM containing 100 μg/mL gentamicin, at twice the final required concentration, from 10 mM stock solutions in DMSO. 100 μL/well of these dilutions were added to the 100 μL of media currently in the assay plates. Medium containing 0.6% DMSO was added to control wells. The final concentration of DMSO in all wells was 0.3%. Cells were incubated at 37° C., 5% CO2 for 72 h. Medium was removed by aspiration. Cell biomass was estimated by staining cells with 80 μL per well methylene blue (Sigma M9140, 0.5% in 50:50 ethanol:water), and incubation at room temperature for 30-60 min. Stain was removed by aspiration and the plates rinsed by immersion in water, then air-dried. To release stain from the cells, 100 μL of solubilization solution was added (1% N-lauroyl sarcosine, Sodium salt, Sigma L5125, in PBS), and plates were shaken gently for about 30 min. Optical density at 620 nm was measured on a microplate reader. Percent inhibition of cell growth was calculated relative to vehicle treated control wells. Concentration of compound that inhibits 50% of cell growth (IC50) was interpolated using nonlinear regression (Levenberg-Marquardt) and the equation, y=Vmax*(1−(x/(K+x)))+Y2, where “K” was equal to the IC50.

A549 = experiment: Methylene Blue Cell Growth Inhibition Assay, A549; type: cell-based; conditions: Homo sapiens, 72 h, read-out: MEB A549 IC50
Procedure: as §2

RKO = experiment: Methylene Blue Cell Growth Inhibition Assay, RKO; type: cell-based; conditions: Homo sapiens, 72 h, read-out: MEB RKO IC50
Procedure: as §2

MX-1 [4] = experiment: Methylene Blue Cell Growth Inhibition Assay, MX-1; type: cell-based; conditions: Homo sapiens, MX1, 72 h, read-out: MEB MX-1 IC50
HCT116 = experiment: Methylene Blue Cell Growth Inhibition Assay, HCT116; type: cell-based; conditions: Homo sapiens, HCT-116, 72 h, read-out: MEB HCT116 IC50
Procedure: as §2

H460 = experiment: Methylene Blue Cell Growth Inhibition Assay, H460; type: cell-based; conditions: Homo sapiens, NCI-H460, 72 h, read-out: MEB H460 IC50
Procedure: as §2

Row | IC50 (A549-L) | IC50 (HT29) | IC50 (HCT-116) | IC50 (P388) | IC50 (Colo 205) | AUC(0-t) [2] | clearance [2] | IC50 (SKOV3) | IC50 (PLK1 kinase domain) | IC50 (A549) | IC50 (HCT116) | IC50 (H460) | SMILES | IC50 (MX-1 [1]) | IC50 [3] | IC50 (RKO) | IC50 (MX-1 [4])
1 | < 100 nM | < 100 nM | < 100 nM | 100 to 1000 nM | < 100 nM | 2200 ng·h/mL | 32.3 mL/min/kg | 100 to 1000 nM | – | – | – | – | C[C@@H](Oc1cc(-n2cnc3cc(-c4ccnc(N5CCN(C)CC5)c4)ccc32)sc1C(N)=O)c1ccccc1C(F)(F)F [Example 2, 5-{5-[2-(4-Methyl-1-piperazinyl)-4-pyridinyl]-1H-benzimidazol-1-yl}-3-({(1R)-1-[2-(trifluoromethyl)phenyl]ethyl}oxy)-2-thiophenecarboxamide] | < 100 nM | – | – | –
2 | < 100 nM | < 100 nM | < 100 nM | < 100 nM | < 100 nM | 1850 ng·h/mL | 35.6 mL/min/kg | < 100 nM | < 10 nM | – | – | – | C[C@@H](Oc1cc(-n2cnc3cc(-c4ccnc(NC5CCN(C)CC5)c4)ccc32)sc1C(N)=O)c1ccccc1C(F)(F)F [Example 3, 5-(5-{2-[(1-Methyl-4-piperidinyl)amino]-4-pyridinyl}-1H-benzimidazol-1-yl)-3-({(1R)-1-[2-(trifluoromethyl)phenyl]ethyl}oxy)-2-thiophenecarboxamide] | < 100 nM | – | – | –
3 | – | – | < 100 nM | – | – | 1170 ng·h/mL | 37.9 mL/min/kg | – | – | < 100 nM | < 100 nM | < 100 nM | C[C@@H](Oc1cc(-n2cnc3cc(-c4ccnc(N)c4)ccc32)sc1C(N)=O)c1ccccc1C(F)(F)F [Example 4, 5-[5-(2-Amino-4-pyridinyl)-1H-benzimidazol-1-yl]-3-({(1R)-1-[2-(trifluoromethyl)phenyl]ethyl}oxy)-2-thiophenecarboxamide] | – | 100 to 1000 nM | < 100 nM | < 100 nM
4 | < 100 nM | < 100 nM | < 100 nM | 100 to 1000 nM | < 100 nM | 2780 ng·h/mL | 18.6 mL/min/kg | < 100 nM | – | – | – | – | C[C@@H](Oc1cc(-n2cnc3cc(-c4ccc(NC5CCN(C)CC5)nc4)ccc32)sc1C(N)=O)c1ccccc1Cl [Example 6, 3-{[(1R)-1-(2-Chlorophenyl)ethyl]oxy}-5-(5-{6-[(1-methyl-4-piperidinyl)amino]-3-pyridinyl}-1H-benzimidazol-1-yl)-2-thiophenecarboxamide] | < 100 nM | – | – | –
